Legend:
Assay type in all cases: cell-based
[1] = tested on: LNCAP cell; test: LNCaP cell proliferation inhibition (WST-8); conditions: Homo sapiens, LNCaP FGC cells, 96 hours, read-out: IC50 for inhibiting LNCAP cell proliferation
Protocol: LNCaP FGC cells (ATCC, CLR-1740) were cultured in RPMI 1640 (ATCC, 30-2001) complete medium supplemented with 10% fetal bovine serum (Hyclone, SH30406.05). On the first day of the experiment, LNCaP FGC cells were seeded at a density of 5,000 cells/well in 96-well plates using RPMI 1640 medium supplemented with 10% fetal bovine serum, with 100 µL of cell suspension per well. The cells were cultured overnight in a 37°C, 5% CO2 cell incubator. On the second day, 100 µL of different concentrations of the compound to be tested and the positive control sample ARV-766 (source: Energy Chemical) prepared in culture medium were added to each well. The final concentration of the compound was 9 concentration points of 5-fold serial dilution starting from 10 µM. The wells to which 100 µL of RPMI 1640 culture medium containing 10% fetal bovine serum was added were set as controls. The cells were cultured in a cell culture incubator at 37°C and 5% CO2 for 96 hours. On the sixth day, the 96-well cell culture plate was removed, and 1/10 volume of WST-8 (Beytime, C0040) reagent was added to each well. The absorbance at 450 nm was detected using a microplate reader (TECAN, F50).

[2] = tested on: VCaP cell; test: VCaP cell proliferation inhibition (WST-8); conditions: Homo sapiens, VCaP cells, 168 hours, read-out: IC50 for inhibiting VCAP cell proliferation
Protocol: VCaP cells (ATCC, CRL-2876) were cultured in DMEM (Gibco, 11995-065) complete medium containing 10% fetal bovine serum (Hyclone, SH30406.05). On the first day of the experiment, VCaP cells were seeded at a density of 15,000 cells/well in a 96-well plate using DMEM medium containing 10% fetal bovine serum, with 100 µL of cell suspension per well, and cultured overnight in a cell culture incubator at 37°C and 5% CO2. […] The final concentration of the compound was 9 concentration points of 5-fold serial dilution starting from 10 µM. The wells to which 100 µL of DMEM medium containing 10% fetal bovine serum was added were set as blank controls and cultured in a cell culture incubator at 37°C and 5% CO2 for 168 hours. On the ninth day, the 96-well cell culture plate was removed and 1/10 volume of WST-8 (Beytime, C0040) reagent was added to each well. The absorbance at 450 nm was measured using a microplate reader (TECAN, F50).

[3] = molecular target: T1, AR protein (Homo sapiens, UniProt P10275); test: AR protein degradation in VCaP cells (Western blot); conditions: 8h
T1 construct: AR-positive human prostate cancer cells VCaP (cell source: ATCC); host or cells: VCaP
T1 sequence (P10275 1-920): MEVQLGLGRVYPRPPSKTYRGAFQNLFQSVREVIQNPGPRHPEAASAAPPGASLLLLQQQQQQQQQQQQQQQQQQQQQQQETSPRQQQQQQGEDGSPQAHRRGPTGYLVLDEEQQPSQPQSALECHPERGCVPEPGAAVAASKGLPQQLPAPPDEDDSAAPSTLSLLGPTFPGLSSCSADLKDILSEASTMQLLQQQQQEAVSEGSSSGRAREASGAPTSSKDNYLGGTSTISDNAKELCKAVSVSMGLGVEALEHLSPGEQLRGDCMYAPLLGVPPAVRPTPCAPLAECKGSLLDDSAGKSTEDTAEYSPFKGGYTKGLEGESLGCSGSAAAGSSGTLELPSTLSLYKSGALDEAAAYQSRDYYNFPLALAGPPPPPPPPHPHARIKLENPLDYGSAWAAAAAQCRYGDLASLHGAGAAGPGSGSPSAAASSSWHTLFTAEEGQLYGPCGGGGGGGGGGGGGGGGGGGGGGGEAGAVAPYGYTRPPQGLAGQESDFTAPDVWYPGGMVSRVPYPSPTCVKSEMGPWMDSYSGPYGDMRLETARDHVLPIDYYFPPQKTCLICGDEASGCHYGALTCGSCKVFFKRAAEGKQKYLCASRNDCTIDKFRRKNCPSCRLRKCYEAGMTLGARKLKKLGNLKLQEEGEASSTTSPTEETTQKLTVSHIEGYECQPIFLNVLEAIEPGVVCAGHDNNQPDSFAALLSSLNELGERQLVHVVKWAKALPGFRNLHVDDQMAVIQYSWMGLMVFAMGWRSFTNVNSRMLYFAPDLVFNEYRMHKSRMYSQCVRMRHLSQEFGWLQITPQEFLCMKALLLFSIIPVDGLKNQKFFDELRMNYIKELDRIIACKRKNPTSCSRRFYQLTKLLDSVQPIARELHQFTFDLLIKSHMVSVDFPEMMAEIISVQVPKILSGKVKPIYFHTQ
Protocol: AR-positive human prostate cancer cells VCaP (cell source: ATCC) were cultured in DMEM (GiBco catalog number 11995-065) containing 10% FBS (Hyclone catalog number SH30406.05), and the cells were inoculated in a six-well microplate (Thermo catalog number 140675) at a density of 3 × 10^5 cells/well. After being cultured overnight in a carbon dioxide incubator (ESCO), the prepared compound of the present invention and the positive control sample ARV-766 (energy chemical) solution of different concentrations were added at a volume of 1 µL/well to make the final concentrations of the compound and the positive control sample reach 5nM and 0.5nM, respectively. At the same time, the corresponding solvent control was set and cultured for 8h. After 8h of culture, the culture medium was removed, and the cells were washed with PBS. RIPA lysis buffer containing 1% Protease Inhibitor Cocktail was added. After lysis and centrifugation, a total protein extract was obtained, and the protein concentration in the extract was detected by BCA method. Protein electrophoresis was performed using SDS-PAGE, and then the protein was transferred to a PVDF (Millipore Sigma catalog number PSRP010R5) membrane at a constant voltage of 100V for 60min. The PVDF membrane was placed in a 5% milk powder 1×TBST solution and blocked at room temperature for 1h. The primary antibody solution (Anti-Androgen receptor, Cell Signaling Technology catalog number: 5153S; 1:2000 dilution) was prepared and incubated at 4°C overnight. The primary antibody solution was discarded and the PVDF membrane was washed with 1×TBST for 5 minutes each time, three times. The secondary antibody solution (Thermo catalog number SA5-35571; 1:7500 dilution) was prepared and incubated at room temperature for 1 hour. The secondary antibody solution was discarded and the PVDF membrane was washed with 1×TBST for 5 minutes each time, three times. A dual-color infrared laser imaging system (Licor catalog number Odyssey CLX) was used for Western membrane imaging. The Image Studio software was used to analyze the grayscale of the bands. GAPDH protein bands were also detected for each sample as an internal reference. The AR protein degradation rate of the compound and the positive control sample was calculated based on the grayscale of the protein bands. Among them, "A" means degradation rate ≥ 50%, "B" means 50%> degradation rate ≥ 20%, "C" means 20% degradation rate ≥ 10%, and "D" means degradation rate less than 10%.

| Structure (SMILES) | IC50 [1] | IC50 [2] | Degradation rate of AR protein in VCAP cells ([3]; 0.5 nM) | Degradation rate of AR protein in VCAP cells ([3]; 5 nM) |
| --- | --- | --- | --- | --- |
| C[C@H]1CC2(CCN(c3ccc(C(=O)N4CCC(CN5CCN6c7ccc(N8CCC(=O)NC8=O)cc7OCC[C@H]6C5)CC4)cc3)CC2)CN1c1ccc(C#N)c(C(F)(F)F)c1 [A-P-195] | 100 nM | 13 nM | B (50%> degradation rate ≥ 20%) | A (degradation rate ≥ 50%) |
| COc1cc(O[C@H]2C(C)(C)[C@H](NC(=O)c3ccc(N4CCC(F)(CN5CCN6c7ccc(N8CCC(=O)NC8=O)cc7OCC[C@H]6C5)CC4)cc3)C2(C)C)ccc1C#N [A-P-196] | 240 nM | 1 nM | A (degradation rate ≥ 50%) | A (degradation rate ≥ 50%) |
| C[C@H]1CC2(CCN(c3ccc(C(=O)N4CCC(CN5CCC6(COc7cc(N8CCC(=O)NC8=O)ccc76)C(F)(F)C5)CC4)cc3)CC2)CN1c1ccc(C#N)c(Cl)c1 (stereo partly shown) [A-P-233] | 77 nM | 15 nM |  | B (50%> degradation rate ≥ 20%) |
| C[C@H]1CC2(CCN(c3ccc(C(=O)N4CCC(CN5CCC6(CC5)CN(C)c5ccc(N7CCC(=O)NC7=O)cc5O6)CC4)cc3)CC2)CN1c1ccc(C#N)c(Cl)c1 [A-P-235, (S)-2-chloro-4-(8-(4-(4-((7-(2,4-dioxotetrahydropyrimidin-1(2H)-yl)-4-methyl-3,4-dihydrospiro[benzo[b][1,4]oxazin-2,4'-piperidine]-1'-yl)methyl)piperidine-1-carbonyl)phenyl)-3-methyl-2,8-diazaspiro[4.5]decane-2-yl)benzonitrile] | > 50000 nM | 1 nM | A (degradation rate ≥ 50%) | A (degradation rate ≥ 50%) |
| COc1cc(O[C@H]2C(C)(C)[C@H](NC(=O)c3ccc(N4CCC(CN5CCN(c6ccc(C(=O)N[C@H]7CCC(=O)NC7=O)c(F)c6)CC5)CC4)cc3)C2(C)C)ccc1C#N [ARV766, reference compound] | 490 nM | 2.5 nM | A (degradation rate ≥ 50%) | A (degradation rate ≥ 50%) |
